Converted amounts (≈) assume the structure as drawn.
Key:
[1] = Estimated solubility of bortezomib in select non-aqueous solvents (visual, incremental solvent addition); format: physicochemical
Experimental: The appearance of the solution was recorded.

[2] = cited from earlier work

| Observation ([1]; N-methyl pyrrolidone (NMP)) | Observation (solvent needed to dissolve approx. 25 mg) ([1]; alcohol (ethanol)) | Observation ([1]; benzyl alcohol) | Observation ([1]; dimethyl sulfoxide (DMSO)) | Estimated Solubility ([1]; in benzyl alcohol) | Estimated Solubility ([1]; in dimethyl sulfoxide (DMSO)) | Observation (solvent needed to dissolve approx. 25 mg) ([1]; propylene glycol) | SMILES | Observation ([1]; glycerol) | Observation ([1]; polyethylene glycol 400) | Solubility in water [2] |
| --- | --- | --- | --- | --- | --- | --- | --- | --- | --- | --- |
| Completely dissolved after 1 mL | Approximately 5.5 mL of solvent needed | Completely dissolved after 0.5 mL | Completely dissolved after 0.5 mL | > 50 mg/mL | > 50 mg/mL | Approximately 7 mL of solvent needed | CC(C)C[C@H](NC(=O)[C@H](Cc1ccccc1)NC(=O)c1cnccn1)B(O)O [Bortezomib, [(1R)-3-methyl-1-[[(2S)-1-oxo-3-phenyl-2-[(pyrazinylcarbonyl)amino]propyl]amino]butyl] boronic acid] | No significant dissolution observed up to 10 mL | No significant dissolution observed up to 10 mL | – |
| – | – | – | – | – | – | – | OCc1ccccc1 [benzyl alcohol] | – | – | 35 mg/mL (≈ 324 mM) |

— patent US20230097975A1, “BORTEZOMIB COMPOSITIONS” (MAIA Pharmaceuticals, Inc., priority 2021, published 2023)
